According to patent US6498125B2, “Pyridine ketones useful as herbicides” (Syngenta Participations AG, priority 1998, dated 2002):

What was measured:
[1] = tested on: Abutilon; assay: Example B3: pre-emergence action, 250 g/ha; assay type: in vivo; conditions: 250 g of AS/ha, sprayed immediately after sowing, 3 weeks, nine-level scale 1=complete damage, 9=no effect
Description: (§1) Monocotyledonous and dicotyledonous test plants are sown in pots in standard soil. Immediately after sowing, the test substances are sprayed on (500 l of spray liquorlha) as an aqueous suspension, prepared from a wettable powder WP10 corresponding to the desired dosage (250 g of a.i./ha).
(§2) The test plants are then grown under optimum conditions in a greenhouse. After a test period of 3 weeks, the test is evaluated with a nine -evel scale of ratings (1=complete damage, 9=no effect). Ratings of 1 to 4 (in particular 1 to 3) mean good to very good herbicidal action, 7-9 mean good tolerance.

[2] = tested on: Amaranthus; assay: Example B3: pre-emergence action, 250 g/ha; assay type: in vivo; conditions: 250 g of AS/ha, sprayed immediately after sowing, 3 weeks, nine-level scale 1=complete damage, 9=no effect
Description: as §1, §2

[3] = tested on: Chenopodium; assay: Example B3: pre-emergence action, 250 g/ha; assay type: in vivo; conditions: 250 g of AS/ha, sprayed immediately after sowing, 3 weeks, nine-level scale 1=complete damage, 9=no effect
Description: as §1, §2

[4] = tested on: Kochia; assay: Example B3: pre-emergence action, 250 g/ha; assay type: in vivo; conditions: 250 g of AS/ha, sprayed immediately after sowing, 3 weeks, nine-level scale 1=complete damage, 9=no effect
Description: as §1, §2

[5] = tested on: Sida; assay: Example B3: pre-emergence action, 250 g/ha; assay type: in vivo; conditions: 250 g of AS/ha, sprayed immediately after sowing, 3 weeks, nine-level scale 1=complete damage, 9=no effect
Description: as §1, §2

[6] = tested on: Stellaria; assay: Example B3: pre-emergence action, 250 g/ha; assay type: in vivo; conditions: 250 g of AS/ha, sprayed immediately after sowing, 3 weeks, nine-level scale 1=complete damage, 9=no effect
Description: as §1, §2

[7] = tested on: Abutilon; assay: Example B4: post-emergence action, 250 g/ha; assay type: in vivo; conditions: 250 g of AS/ha, sprayed in the 2-3-leaf stage, 0.2% X77, 3 weeks, nine-level scale 1=complete damage, 9=no effect
Description: (§3) Monocotyledonous and dicotyledonous test plants are sown in pots in standard soil. In the 2-3- leaf stage of the test plants, the test substances are sprayed on (500 l of spray liquor/ha) as an aqueous suspension, prepared from a wettable powder WP10 according to the desired dosage (250 g of a.i./ha). 0.2% of X77 is added as wetting agent to the spray liquor. The test plants are then grown under optimum conditions in a greenhouse.
(§4) After a test period of 3 weeks, the test is evaluated with a nine4evel scale of ratings (1=complete damage, 9=no effect). Ratings of 1 to 4 (in particular 1 to 3) mean good to very good herbicidal action, 7-9 mean good tolerance.

[8] = tested on: Amaranthus; assay: Example B4: post-emergence action, 250 g/ha; assay type: in vivo; conditions: 250 g of AS/ha, sprayed in the 2-3-leaf stage, 0.2% X77, 3 weeks, nine-level scale 1=complete damage, 9=no effect
Description: as §3, §4

[9] = tested on: Chenopodium; assay: Example B4: post-emergence action, 250 g/ha; assay type: in vivo; conditions: 250 g of AS/ha, sprayed in the 2-3-leaf stage, 0.2% X77, 3 weeks, nine-level scale 1=complete damage, 9=no effect
Description: as §3, §4

[10] = tested on: Kochia; assay: Example B4: post-emergence action, 250 g/ha; assay type: in vivo; conditions: 250 g of AS/ha, sprayed in the 2-3-leaf stage, 0.2% X77, 3 weeks, nine-level scale 1=complete damage, 9=no effect
Description: as §3, §4

[11] = tested on: Sida; assay: Example B4: post-emergence action, 250 g/ha; assay type: in vivo; conditions: 250 g of AS/ha, sprayed in the 2-3-leaf stage, 0.2% X77, 3 weeks, nine-level scale 1=complete damage, 9=no effect
Description: as §3, §4

[12] = tested on: Stellaria; assay: Example B4: post-emergence action, 250 g/ha; assay type: in vivo; conditions: 250 g of AS/ha, sprayed in the 2-3-leaf stage, 0.2% X77, 3 weeks, nine-level scale 1=complete damage, 9=no effect
Description: as §3, §4

[13] = tested on: Monocotyledonous and dicotyledonous test plants; assay: Example B1: pre-emergence herbicidal action, 2 kg of AS/ha; assay type: in vivo; conditions: 3 weeks, scale 1-9
In short: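 Pre-emergence test: test substances sprayed right after sowing in standard soil as aqueous suspension (25% wettable powder) or emulsion (25% emulsion concentrate) at 2 kg AS/ha in 500 l water/ha. Plants grown in greenhouse; rated after 3 weeks on a nine-level scale (1=complete damage, 9=no effect).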

[14] = tested on: Monocotyledonous and dicotyledonous test plants; assay: Example B2: post-emergence herbicidal action, 2 kg of AS/ha; assay type: in vivo; design: key: 1 = complete damage, 9 = no effect; conditions: 4- to 6-leaf stage, about 18 days, scale 1-9; for post-emergence action rating, Avena: test plant Avena; for post-emergence action rating, Setaria: test plant Setaria; for post-emergence action rating, Sinapis: test plant Sinapis; for post-emergence action rating, Solanum: test plant Solanum; for post-emergence action rating, Stellaria: test plant Stellaria
In short: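 Greenhouse-grown mono- and dicot plants sprayed post-emergence at 4- to 6-leaf stage with aqueous suspension (from 25% wettable powder) or emulsion (from 25% emulsion concentrate), 2 kg AS/ha in 500 l water/ha. Rated after about 18 days on nine-level scale (1 = complete damage, 9 = no effect).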

Structure (SMILES) | Pre-emergence action: Abutilon (rating) [1] | Pre-emergence action: Amaranthus (rating) [2] | Pre-emergence action: Chenopodium (rating) [3] | Pre-emergence action: Kochia (rating) [4] | Pre-emergence action: Sida (rating) [5] | Pre-emergence action: Stellaria (rating) [6] | Post-emergence action: Abutilon (rating) [7] | Post-emergence action: Amaranthus (rating) [8] | Post-emergence action: Chenopodium (rating) [9] | Post-emergence action: Kochia (rating) [10] | Post-emergence action: Sida (rating) [11] | Post-emergence action: Stellaria (rating) [12] | also measured
CSc1ccc(C(=O)C2=C(O)C3CCC(C3)C2=O)c(C(F)(F)F)n1 (stereo not drawn) [Compound 1.335] | 1 | 2 | 1 | 5 | 2 | 7 | 3 | 2 | 2 | 2 | 2 | 3 | 
CS(=O)(=O)c1ccc(C(=O)C2=C(O)C3CCC(C3)C2=O)c(C(F)(F)F)n1 (stereo not drawn) [Compound 1.339] | 2 | 1 | 1 | 7 | 2 | 1 | 2 | 2 | 3 | 1 | 4 | 3 | 
CCSc1ccc(C(=O)C2=C(O)C3CCC(C3)C2=O)c(C(F)(F)F)n1 (stereo not drawn) [Compound 1.341] | 3 | 9 | 1 | 9 | 4 | 1 | 5 | 2 | 3 | 4 | 5 | 4 | 
CC[S+]([O-])c1ccc(C(=O)C2=C(O)C3CCC(C3)C2=O)c(C(F)(F)F)n1 (stereo not drawn) [Compound 1.343] | 1 | 4 | 1 | 9 | 3 | 5 | 3 | 2 | 2 | 3 | 9 | 3 | 
COc1ccc(C(=O)C2=C(O)C3CCC(C3)C2=O)c(C(F)(F)F)n1 (stereo not drawn) [Compound 1.347] | 2 | 2 | 1 | 1 | 4 | 1 | 3 | 2 | 2 | 2 | 3 | 3 | 
O=C(C1=C(O)C2CCC(C2)C1=O)c1ccc(OCC(F)(F)F)nc1C(F)(F)F (stereo not drawn) [Compound 1.349] | 1 | 3 | 1 | 4 | 2 | 5 | 2 | 2 | 2 | 2 | 2 | 3 | 
C#CCOc1ccc(C(=O)C2=C(O)C3CCC(C3)C2=O)c(C(F)(F)F)n1 (stereo not drawn) [Compound 1.351] |  |  |  |  |  |  | 5 | 2 | 3 | 3 | 3 | 3 | 
O=C(C1=C(O)C2CCC(C2)C1=O)c1ccc(Cl)nc1C(F)(F)F (stereo not drawn) [Compound 1.355] | 1 | 1 | 1 | 1 | 2 | 2 | 2 | 2 | 2 | 3 | 2 | 3 | 
Cc1ccc(C(=O)C2=C(O)C3CCC(C3)C2=O)c(C(F)(F)F)n1 (stereo not drawn) [Compound 1.361] |  |  |  |  |  |  | 2 | 2 | 2 | 2 | 2 | 3 | 
Cc1nc(C(F)(F)F)ccc1C(=O)C1=C(Cl)C2CCC(C2)C1=O (stereo not drawn) [Compound 1.398, 4-chloro-3-(2-methyl-6-trifluoromethyl-pyridine-3-carbonyl)bicyclo[3.2.1]oct-3-en-2-one] |  |  |  |  |  |  |  |  |  |  |  |  | pre-emergence action rating, Avena ([13]; test plant Avena): 2; pre-emergence action rating, Cyperus ([13]; test plant Cyperus): 1; pre-emergence action rating, Setaria ([13]; test plant Setaria): 1; pre-emergence action rating, Sinapis ([13]; test plant Sinapis): 1; pre-emergence action rating, Solanum ([13]; test plant Solanum): 1; pre-emergence action rating, Stellaria ([13]; test plant Stellaria): 1; post-emergence action rating, Avena [14]: 2; post-emergence action rating, Setaria [14]: 2; post-emergence action rating, Sinapis [14]: 1; post-emergence action rating, Solanum [14]: 2; post-emergence action rating, Stellaria [14]: 2; melting point: 137 to 138 °C
CCC(=O)NC1CC(=O)C(C(=O)c2ccc(C(F)(F)F)nc2C)=C(O)C1 (stereo not drawn) [Compound 6.006] |  |  |  |  |  |  |  |  |  |  |  |  | post-emergence action rating, Avena [14]: 2; post-emergence action rating, Setaria [14]: 5; post-emergence action rating, Sinapis [14]: 2; post-emergence action rating, Solanum [14]: 2; post-emergence action rating, Stellaria [14]: 2; melting point: 176 to 177 °C
